Measurements as given in patent US4021431A, “3-(Piperidino-lower-alkyl)-indoles” (Sterling Drug Inc., priority 1975, dated 1977).
Where a name gives a salt, the structure may show the parent alone.

Tested on: adjuvant-induced arthritis
Test: inhibition of adjuvant-induced arthritis test (AA)
Details: for AA: toxicity noted in place of % inhibition: oral, twelve daily medications
[1] = Rattus norvegicus, po, read-out: AA (% Inhib.)

Method: The inhibition of adjuvant-induced arthritis test used in the evaluation of the instant compounds is described briefly as follows: Adult male Sprague-Dawley strain rats weighing 200-230 grams were used; 0.1 ml. of a 0.6% suspension of adjuvant (M. Butyricum, Difco Laboratories, Detroit, Michigan) in heavy mineral oil was injected into the plantar tissue of the left hind paw. A negative control group was injected with mineral oil only. Symptoms of polyarthritis began to appear approximately ten days after adjuvant administration, and beginning on the ninth day after adjuvant injection, the animals were given, by gavage, twelve daily medications of the test compounds suspended in 1% gum tragacanth in a volume of 1 ml./100 g. of body weight. Both the negative control and adjuvant injected control animals received the vehicle only. Food and water are permitted ad libitum. Twenty-four hours after the last medication, the animals were weighed, the degree of arthritic involvement (that is the increase in foot edema measured plethysmographically as described above), and plasma inflammation units were determined. The results were expressed as percent inhibition calculated from the average differences in total foot volume of both hind paws between the adjuvant injected control and medicated rats, correcting for difference in foot volume of the oil injected negative control group.
Following foot volume measurements, the animals were anesthetized with ether and bled by heart puncture into rubber stoppered, evacuated glass tubes (calibrated to draw 2.7 ml.) containing 0.3 ml. of 0.1M sodium oxalate solution for determination of plasma inflammation units (P.I.U.). The unclotted blood was centrifuged, and 0.1 ml. of the plasma was diluted with 5.0 of 0.9% sodium chloride solution. The P.I.U.'s are direct spectrophotometer optical density readings expressed as the difference between preheated and heated plasma, corrected for 1:50 dilution. The results were expressed as percent inhibition calculated from the difference between the average plasma uncorrected for average plasma inflammation units of oil-injected negative control rats.
All data were obtained on oral administration.

COc1ccc2c(c1)c(CCN1CCCCC1CC1CCCCC1)c(C)n2C(=O)c1ccc(Cl)c(Cl)c1 (centres unmarked) [Example 5]
inhibition in vivo at 0.08 µM, 0.08 µmol/kg [1]: 0%

COc1ccc2c(c1)c(CCN1CCCCC1CC1CCCCC1)cn2C(=O)c1ccccc1 (centres unmarked) [Example 67]
inhibition in vivo at 0.08 µM, 0.08 µmol/kg [1]: 25%

COc1ccc2c(c1)c(CCN1CCCCC1C1CCCCC1)c(C)n2C(=O)c1ccccc1 (centres unmarked) [Example 62, 1-benzoyl-3-[2-(2-cyclohexylpiperidino)ethyl]-5-methoxy-2-methylindole hydrochloride]
inhibition in vivo at 0.324 µM, 0.324 µmol/kg [1]: 107%

COc1ccc2c(c1)c(CCN1CCC(CCC3CCCCC3)CC1)c(C)n2C(=O)c1ccc(F)cc1 [Example 88, 1-(4-fluorobenzoyl)-3-{2-[4-(2-cyclohexylethyl)piperidino]ethyl}-5-methoxy-2-methylindole hydrochloride]
inhibition in vivo at 0.08 µM, 0.08 µmol/kg [1]: 75%

COc1ccc2c(c1)c(CCN1CCCCC1CCC1CCCCC1)c(C)n2C(=O)c1ccc(F)cc1 (centres unmarked) [Example 65, 1-(4-fluorobenzoyl)-3-{2-[2-(2-cyclohexylethyl)piperidino]ethyl}-5-methoxy-2-methylindole hydrochloride]
inhibition in vivo at 0.08 µM, 0.08 µmol/kg [1]: 85%

COc1ccc2c(c1)c(CCNC(C)(C)C)c(C)n2C(=O)c1ccc(F)cc1.Cl [Example 86, 1-(4-fluorobenzoyl)-3-[2-(N-t-butylamino)ethyl]-5-methoxy-2-methylindole hydrochloride]
inhibition in vivo at 0.005 µM, 0.005 µmol/kg [1]: 13%
inhibition in vivo at 0.02 µM, 0.02 µmol/kg [1]: 71%
AA: toxicity noted in place of % inhibition (0.08 μM/kg.): Toxic

COc1ccc2c(c1)c(CCN1CCC(CCC3CCCCC3)CC1)c(C)n2C(=O)c1ccccc1 [Example 89, 1-benzoyl-3-{2-[4-(2-cyclohexylethyl)piperidino]ethyl}-5-methoxy-2-methylindole hydrochloride]
inhibition in vivo at 0.08 µM, 0.08 µmol/kg [1]: 89%

Cc1c(CCN2CCCCC2CC2CCCCC2)c2ccccc2n1C(=O)c1ccccc1 (centres unmarked) [Example 48]
inhibition in vivo at 0.08 µM, 0.08 µmol/kg [1]: 33%

COc1ccc2c(c1)c(CCN1CCCCC1CC1CCCCC1)c(C)n2C(=O)c1ccccc1F (centres unmarked) [Example 9]
inhibition in vivo at 0.162 µM, 0.162 µmol/kg [1]: 72%

COc1ccc2c(c1)c(CCN1CCCCC1CC1CCCCC1)c(C)n2C(=O)c1ccc(F)cc1 (centres unmarked) [Example 6]
inhibition in vivo at 0.02 µM, 0.02 µmol/kg [1]: 66%
inhibition in vivo at 0.08 µM, 0.08 µmol/kg [1]: 84%

COc1ccc(C(=O)n2c(C)c(CCN3CCCCC3CC3CCCCC3)c3cc(OC)ccc32)cc1 (centres unmarked) [Example 3]
inhibition in vivo at 0.18 µM, 0.18 µmol/kg [1]: 64%

COc1ccc2c(c1)c(CCN1CCCCC1CC1CCCCC1)c(C)n2C(=O)c1cccs1 (centres unmarked) [Example 10]
inhibition in vivo at 0.324 µM, 0.324 µmol/kg [1]: 63%

COc1ccc2c(c1)c(CCN1CCCCC1C1CCCCC1)c(C)n2C(=O)c1ccc(F)cc1 (centres unmarked) [Example 63, 1-(4-fluorobenzoyl)-3-[2-(2-cyclohexylpiperidino)ethyl]-5-methoxy-2-methylindole hydrochloride]
inhibition in vivo at 0.08 µM, 0.08 µmol/kg [1]: 84%

COc1ccc2c(c1)c(CCNC(C)(C)C)c(C)n2C(=O)c1ccccc1.Cl [72 (N-H), 1-benzoyl-3-[2-(N-t-butylamino)ethyl]-5-methoxy-2-methylindole hydrochloride]
AA: toxicity noted in place of % inhibition (0.16 μM/kg.): Toxic

COc1ccc2c(c1)c(CCN1CCCCC1CC1CCCCC1)c(C)n2C(=O)c1ccc(Cl)cc1Cl (centres unmarked) [Example 4]
inhibition in vivo at 0.02 µM, 0.02 µmol/kg [1]: 28%
inhibition in vivo at 0.324 µM, 0.324 µmol/kg [1]: 80%

COc1ccc2c(c1)c(CCN1CCCCC1CC1CCCCC1)c(C)n2C(=O)c1ccco1 (centres unmarked) [Example 11]
inhibition in vivo at 0.324 µM, 0.324 µmol/kg [1]: 50%

COc1ccc2c(c1)c(CCN(Cc1ccccc1)C(C)(C)C)c(C)n2C(=O)c1ccccc1 [72 (N-Benzyl), 1-benzoyl-3-[2-(N-benzyl-N-t-butylamino)ethyl]-5-methoxy-2-methylindole hydrochloride]
inhibition in vivo at 0.08 µM, 0.08 µmol/kg [1]: 62%

COc1ccc2c(c1)c(CCN1CCCCC1CC1CCCCC1)c(C)n2C(=O)c1ccc(C)cc1 (centres unmarked) [Example 2]
inhibition in vivo at 0.08 µM, 0.08 µmol/kg [1]: 37%

COc1ccc2c(c1)c(CCN(Cc1ccccc1)C(C)(C)C)c(C)n2C(=O)c1ccc(F)cc1 [Example 85, 1-(4-fluorobenzoyl)-3-[2-(N-benzyl-N-t-butylamino)ethyl]-5-methoxy-2-methylindole hydrochloride]
inhibition in vivo at 0.005 µM, 0.005 µmol/kg [1]: 0%
inhibition in vivo at 0.02 µM, 0.02 µmol/kg [1]: 11%
inhibition in vivo at 0.08 µM, 0.08 µmol/kg [1]: 104%

COc1ccc2c(c1)c(CCN1CCCCC1CCC1CCCCC1)c(C)n2C(=O)c1ccccc1 (centres unmarked) [Example 64, 1-benzoyl-3-{2-[2-(2-cyclohexylethyl)piperidino]ethyl}-5-methoxy-2-methylindole]
inhibition in vivo at 0.01 µM, 0.01 µmol/kg [1]: 36%
inhibition in vivo at 0.04 µM, 0.04 µmol/kg [1]: 70%
inhibition in vivo at 0.16 µM, 0.16 µmol/kg [1]: 100%

COc1ccc2c(c1)c(CCN1CCCCC1CC1CCCCC1)c(C)n2C(=O)c1ccc(Cl)cc1 (centres unmarked) [Example 84, 1-(4-chlorobenzoyl)-3-[2-(2-cyclohexylmethylpiperidino)ethyl]-5-methoxy-2-methylindole]
inhibition in vivo at 0.01 µM, 0.01 µmol/kg [1]: 36%
inhibition in vivo at 0.04 µM, 0.04 µmol/kg [1]: 70%
inhibition in vivo at 0.16 µM, 0.16 µmol/kg [1]: 100%

COc1ccc2c(c1)c(CCN1CCCCC1CC1CCCCC1)c(C)n2C(=O)C=Cc1ccccc1 (centres unmarked) [Example 8]
inhibition in vivo at 0.08 µM, 0.08 µmol/kg [1]: 30%

Cc1c(CCN2CCCCC2CC2CCCCC2)c2cc(F)ccc2n1C(=O)c1ccccc1 (centres unmarked) [Example 58]
inhibition in vivo at 0.08 µM, 0.08 µmol/kg [1]: 51%

COc1ccc2c(c1)c(CCN1CCCCC1CC1CCCCC1)c(C)n2C(=O)c1ccccc1 (centres unmarked) [Example 1, 1-Benzoyl-3-[2-(2-cyclohexylmethylpiperidino)ethyl]-5-methoxy-2-methylindole]
inhibition in vivo at 0.1 µM, 0.1 µmol/kg [1]: 79%

Cc1c(CCN2CCCCC2CC2CCCCC2)c2cc(F)cc(F)c2n1C(=O)c1ccccc1 (centres unmarked) [Example 50]
inhibition in vivo at 0.162 µM, 0.162 µmol/kg [1]: 87%

COc1ccc2c(c1)c(CCN1CCCCC1CC1CCCCC1)c(C)n2C(=O)c1cccc(F)c1 (centres unmarked) [Example 12]
inhibition in vivo at 0.08 µM, 0.08 µmol/kg [1]: 17%

COc1ccc2c(c1)c(CCN(C(C)C)C(C)C)c(C)n2C(=O)c1ccc(F)cc1 [Example 87, 1-(4-fluorobenzoyl)-3-[2-(diisopropylamino)ethyl]-5-methoxy-2-methylindolehydrochloride]
inhibition in vivo at 0.005 µM, 0.005 µmol/kg [1]: 43%
inhibition in vivo at 0.02 µM, 0.02 µmol/kg [1]: 73%
inhibition in vivo at 0.08 µM, 0.08 µmol/kg [1]: 98%

COc1ccc2c(c1)c(CCN(C(C)C)C(C)C)c(C)n2C(=O)c1ccccc1 [Example 73, 1-benzoyl-3-[2-(diisopropylamino)ethyl]-5-methoxy-2-methylindole hydrochloride]
inhibition in vivo at 0.005 µM, 0.005 µmol/kg [1]: 0%
inhibition in vivo at 0.02 µM, 0.02 µmol/kg [1]: 0%
inhibition in vivo at 0.08 µM, 0.08 µmol/kg [1]: 53%

COc1ccc2c(c1)c(CCN1CCC(C3CCCCC3)CC1)c(C)n2C(=O)c1ccc(F)cc1 [Example 90, 1-(4-fluorobenzoyl)-3-[2-(4-cyclohexylpiperidino)ethyl]-5-methoxy-2-methylindole hydrochloride]
inhibition in vivo at 0.08 µM, 0.08 µmol/kg [1]: 77%

COc1ccc2c(c1)c(CCN1CCCCC1CC1CCCCC1)c(C)n2C(=O)c1ccccc1Br (centres unmarked) [Example 7]
inhibition in vivo at 0.08 µM, 0.08 µmol/kg [1]: 29%
